According to paper PMC3790966, “Honokiol: A non-adipogenic PPARγ agonist from nature^” (Biochimica et Biophysica Acta, 2013):

Tests used:
PPARα = target: T1, PPARα (Homo sapiens, UniProt Q07869); experiment: LBD binding (data not shown), three to four-fold higher concentrations than for PPARγ
T1 construct: gene PPARA; LBD
T1 sequence (Q07869 196-468 limits assumed): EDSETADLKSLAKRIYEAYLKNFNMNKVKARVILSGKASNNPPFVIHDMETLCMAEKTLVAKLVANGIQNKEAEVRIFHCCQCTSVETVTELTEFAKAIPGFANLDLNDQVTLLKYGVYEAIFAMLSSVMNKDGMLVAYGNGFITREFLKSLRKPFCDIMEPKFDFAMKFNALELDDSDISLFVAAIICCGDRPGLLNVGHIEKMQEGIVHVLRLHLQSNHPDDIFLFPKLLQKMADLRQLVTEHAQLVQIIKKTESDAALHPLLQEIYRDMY

PPARβ/δ = target: T2, PPARβ/δ (Homo sapiens, UniProt Q03181); experiment: as above
T2 construct: gene PPARD; LBD
T2 sequence (Q03181 171-441 limits assumed): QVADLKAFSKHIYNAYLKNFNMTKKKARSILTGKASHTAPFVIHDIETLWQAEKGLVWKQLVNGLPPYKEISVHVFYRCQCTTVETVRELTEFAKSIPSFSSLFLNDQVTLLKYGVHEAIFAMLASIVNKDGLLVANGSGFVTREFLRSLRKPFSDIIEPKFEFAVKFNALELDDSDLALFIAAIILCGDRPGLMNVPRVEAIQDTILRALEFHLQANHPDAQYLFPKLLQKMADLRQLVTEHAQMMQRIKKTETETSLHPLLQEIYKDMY

PPARγ = target: T3, PPARγ (Homo sapiens, UniProt P37231); experiment: LanthaScreen TR-FRET competitive binding assay with purified LBD; supported by luciferase transactivation (partial agonist, EC50 […])
T3 construct: gene PPARG
T3 sequence (P37231 231-505 limits assumed): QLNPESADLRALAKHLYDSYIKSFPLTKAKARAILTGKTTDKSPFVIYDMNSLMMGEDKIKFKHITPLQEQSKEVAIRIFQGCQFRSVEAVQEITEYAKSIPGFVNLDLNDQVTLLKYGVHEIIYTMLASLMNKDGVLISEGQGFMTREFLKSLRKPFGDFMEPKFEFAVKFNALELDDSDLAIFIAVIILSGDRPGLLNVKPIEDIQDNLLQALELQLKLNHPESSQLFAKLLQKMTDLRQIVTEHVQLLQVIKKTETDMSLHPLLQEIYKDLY

C=CCc1ccc(O)c(-c2ccc(O)c(CC=C)c2)c1 [honokiol]
LBD binding (data not shown), three to four-fold higher concentrations than for (PPARα): Honokiol also bound to the LBDs of PPARα and PPARβ/δ but only at considerably (three to four-fold) higher concentrations
LBD binding (data not shown), three to four-fold higher concentrations than for (PPARβ/δ): Honokiol also bound to the LBDs of PPARα and PPARβ/δ but only at considerably (three to four-fold) higher concentrations
Ki (PPARγ): 22.9 µM
